Tests used:
[1] = TEM morphology and size of SSP nanostructures; assay type: physicochemical; settings: for morphology after incubation with sSema4D: sSema4D 6 h, room temperature, mass ratio sSema4D/SSP 1/1000
Protocol: TP-1 to TP-12, SSP-1 and SSP-2 […]
were purchased by GL Biochem (Shanghai) Ltd.
Preparation of peptide-based nanomaterials. SSP-1 or SSP-2 monomers were dissolved in artificial tears at a concentration of 4.0 mM and sonicated for 30 min, followed by quick injection into water at a volume ratio of 1:200 for artificial tears and H2O to obtain the nanomaterials solution (20 μM).
TEM for the morphology. The SSP-1 or SSP-2 solution with the concentration of 20 μM (10 μL) was placed dropwise onto a copper mesh for 5 min, then most of the liquid was removed through a filter paper. Uranyl acetate solution (10 μL) were employed to stain the samples for 5 min, followed by drying the spare liquid with the filter. Finally, the copper mesh was washed with 10 μL of deionized water, which was blotted after staining and drying at room temperature. All of the samples were observed by TEM (Tecnai G2 20 S-TWIN) at an accelerating voltage of 120 kV. […]

[2] = Intraocular distribution and retention after topical instillation; assay type: in vivo, mouse; settings: for presence (retention) in the mice vitreous humor: FITC-labeled peptide eye drops, fluorescence of vitreous humor at different time points, n = 3 (each sample from 5 mice); for intraocular distribution of fluorescence after topical instillation: FITC-labeled peptide, 10 µL eye drop once, 12 h after instillation, fluorescence and LC/MS
Protocol: To study the intraocular distribution of the FITC‐labeled SSP‐1 and SSP‐2 after topical instillation, fluorescence observation and liquid chromatography‐mass spectrometry (LC/MS) were performed on the entire eyes of mice, the frozen sections of the eyes, and their vitreous humor (Figure 7A–D). […] The topical instillation of SSP eye drop was instilled once with 10 µL before fluorescence observation. However, intraocular injection was administrated once with the maximum volume of 2 µL to avoid overdose induced high intraocular pressure due to the limited volume of the vitreous cavity. […] Next, we studied the intraocular pharmacokinetics of SSP‐1 and SSP‐2 after topical instillation. […] Moreover, we established an in vitro blood‐retina barrier (BRB) model to investigate the transferring efficiency of SSP‐1 and SSP‐2 across the posterior ocular absorption barriers. […]
Intraocular Distribution of FG/FH. Male mice (20-25 g) derived from Charles River (Beijing, China) were used in this experiment. 10 μL FITC-labeled FH or FG (dissolved in artificial tear fluid, 20 nM) were gently dripped in the conjunctival sac.
The upper and lower eyelids were massaged to make homodisperse on the eye surface. After 12h FITC-labeled FH or FG were instilled, the mice were sacrificed and the eyeballs were wash in the PBS solution. luminescence signal was detected via the In-Vivo FX PRO system (Bruker).
Statistical analysis. Statistical analysis was conducted using Graphpad Prism 8.0 software. All data were expressed by mean ± SD. Unpaired two-tailed Student’s t-test (two groups) or one-way ANOVA (more than 2 groups) was used to analyze the statistical significances of the data. Person’s correlation analysis was conducted to […]

[3] = self-assembled in water, 20 μM, without sSema4D

morphology after incubation with sSema4D [1] | average length of nanorods [1, 3] | presence (retention) in the mice vitreous humor [2] | intraocular distribution of fluorescence after topical instillation [2] | average size of NPs [1, 3] | Substance
long‐size of nanofibrillar structures | 190 ± 23.9 nm | up to 5 days | mainly in the retina and vitreous humor | – | C16‐FFVLK‐KNKAAKG [SSP-2, smart supramolecular peptide, C16‐FFVLK‐KNKAAKG, self-assembling, captures sSema4D]
dense NFs network structures | – | up to 5 days | mainly in the retina and vitreous humor | 44.8 ± 2.9 nm | C16‐FFVLK‐KQKRPRH [SSP-1, smart supramolecular peptide, C16‐FFVLK‐KQKRPRH, self-assembling, captures sSema4D]

From PMC9875641, “Ophthalmic Solution of Smart Supramolecular Peptides to Capture Semaphorin 4D against Diabetic Retinopathy” (Advanced Science, 2022)
